The assay concerns L1210 leukemia ip in BDF1 mice, survival T/C. In words: NCI In Vivo Anticancer Drug Screen. Data for tumor model L1210 Leukemia (intraperitoneal) in B6D2F1 (BDF1) mice. The conditions noted are these: endpoint: mean survival time, higher = longer survival. An outline of the steps:
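Each compound was tested against a transplantable tumor grown in mice. The endpoint was survival, with treated animals benchmarked against vehicle controls as a simple ratio.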

[1] abbreviates: dose: 100.0 mg/kg/injection, schedule: Q04DX003 (ip), vehicle: saline.
Where [2] appears, read: dose: 200.0 mg/kg/injection, schedule: Q04DX003 (ip), vehicle: saline.
The mark [3] stands for this setting: dose: 100.0 mg/kg/injection, schedule: Q01DX009 (ip), vehicle: saline.
[4] abbreviates: dose: 200.0 mg/kg/injection, schedule: Q01DX009 (ip), vehicle: saline.
The mark [5] stands for this setting: dose: 400.0 mg/kg/injection, schedule: Q01DX009 (ip), vehicle: saline.
The mark [6] stands for this setting: dose: 100.0 mg/kg/injection, schedule: Q01DX009 (ip), vehicle: Klucel (hydroxypropylcellulose) (HPC).
Setting [7] is: dose: 200.0 mg/kg/injection, schedule: Q01DX009 (ip), vehicle: Klucel (hydroxypropylcellulose) (HPC).
[8] abbreviates: dose: 400.0 mg/kg/injection, schedule: Q01DX009 (ip), vehicle: Klucel (hydroxypropylcellulose) (HPC).
Where [9] appears, read: dose: 100.0 mg/kg/injection, schedule: Q04DX003 (ip), vehicle: Klucel (hydroxypropylcellulose) (HPC).
Where [10] appears, read: dose: 200.0 mg/kg/injection, schedule: Q04DX003 (ip), vehicle: Klucel (hydroxypropylcellulose) (HPC).
Where [11] appears, read: dose: 400.0 mg/kg/injection, schedule: Q04DX003 (ip), vehicle: Klucel (hydroxypropylcellulose) (HPC).
[12] abbreviates: dose: 50.0 mg/kg/injection, schedule: Q04DX003 (ip), vehicle: Klucel (hydroxypropylcellulose) (HPC).
[13] abbreviates: dose: 100.0 mg/kg/injection, schedule: Q01DX001 (ip), vehicle: Klucel (hydroxypropylcellulose) (HPC).
[14] abbreviates: dose: 200.0 mg/kg/injection, schedule: Q01DX001 (ip), vehicle: Klucel (hydroxypropylcellulose) (HPC).
The mark [15] stands for this setting: dose: 400.0 mg/kg/injection, schedule: Q01DX001 (ip), vehicle: Klucel (hydroxypropylcellulose) (HPC).

Toxic doses and inconclusive results are not listed.

From PubChem BioAssay AID248 (DTP/NCI, 2004) come the findings set out here.

As to `CC(C)Sc1nn2nnnc2c2ccccc12`, the T/C (dose: 50.0 mg/kg/injection, schedule: Q04DX003 (ip), vehicle: saline) is 94 % of control; the T/C under setting [1] is 97 % of control; the T/C under setting [2] was 103 % of control.
For the compound `COc1cc(Cl)ccc1NC(=O)Oc1ccc(NC(C)=O)cc1`, the T/C reads like this: under setting [3], 110 % of control; under setting [4], 92 % of control; under setting [5], 103 % of control.
As for `CC(=O)c1cccc(NC(=O)OC2CCCC(C)C2)c1` (stereo not drawn), the T/C runs as follows: under setting [6], 93 % of control; under setting [7], 101 % of control; under setting [8], 97 % of control.
Regarding `Nc1nc(N)c(-c2ccc(Cl)c(Cl)c2)c(CO)n1`, the T/C was 98 % of control (dose: 100.0 mg/kg/injection, schedule: Q04DX003 (ip), vehicle: saline with Tween-80); 107 % of control (dose: 200.0 mg/kg/injection, schedule: Q04DX003 (ip), vehicle: saline with Tween-80); 117 % of control (dose: 400.0 mg/kg/injection, schedule: Q04DX003 (ip), vehicle: saline with Tween-80).
Turning to `C=C(Br)C(C)N` (stereo not drawn), under setting [3], the T/C was 104 % of control.
Regarding `O=CNc1ccccc1Sc1ccc(C(=O)O)cc1[N+](=O)[O-]`, the T/C is 100 % of control under setting [9], 107 % of control under setting [10] and 104 % of control under setting [11].
In the case of `COC(=O)C1C2C=CC(C2=C(C)C)C1C(=O)OC` (stereo not drawn), the T/C was 100 % of control under setting [12]; 92 % of control under setting [13]; 98 % of control under setting [9]; 96 % of control under setting [14]; 94 % of control under setting [10]; 91 % of control under setting [15].
Take `CC(=O)CC(=O)CC(=O)c1ccccc1`: the T/C under setting [12] was 108 % of control; the T/C under setting [13] was 97 % of control; the T/C under setting [9] was 96 % of control; the T/C under setting [14] is 93 % of control; the T/C under setting [10] is 105 % of control; the T/C under setting [15] was 102 % of control.
As for `C=C1OC(n2cnc3c(=N)n(O)cnc32)C2OC(C)(C)OC12` (stereo not drawn), the T/C runs as follows: (dose: 100.0 mg/kg/injection, schedule: Q01DX005 (ip), vehicle: saline) 96 % of control; (dose: 200.0 mg/kg/injection, schedule: Q01DX005 (ip), vehicle: saline) 102 % of control.
In the case of `Cc1ccc(N=Nc2ccc(C)cc2NC(=O)Nc2ccccc2C(F)(F)F)cc1`, the T/C runs as follows: under setting [6], 92 % of control; under setting [7], 90 % of control; under setting [8], 90 % of control.
With `CC[P+](CCCCCCCCC[P+](CC)(Cc1ccccc1)c1ccccc1)(Cc1ccccc1)c1ccccc1` (stereo not drawn), under “dose: 5.0 mg/kg/injection, schedule: Q01DX001 (ip), vehicle: saline”, the T/C is 105 % of control.
`Cc1ccc(C)c(NC(=O)Oc2ccc(-c3ccccc3)cc2)c1`: the T/C under setting [3] is 96 % of control; the T/C under setting [1] was 109 % of control; the T/C under setting [4] is 95 % of control; the T/C under setting [2] was 110 % of control; the T/C under setting [5] was 95 % of control; the T/C (dose: 400.0 mg/kg/injection, schedule: Q04DX003 (ip), vehicle: saline) is 101 % of control.
As to `O=S(=O)(C=C(N1CCCCC1)N1CCCCC1)Cc1ccccc1`, the T/C is 113 % of control (dose: 6.25 mg/kg/injection, schedule: Q01DX009 (ip), vehicle: saline); 100 % of control (dose: 12.5 mg/kg/injection, schedule: Q01DX001 (ip), vehicle: saline); 106 % of control (dose: 12.5 mg/kg/injection, schedule: Q01DX009 (ip), vehicle: saline); 94 % of control (dose: 12.5 mg/kg/injection, schedule: Q04DX003 (ip), vehicle: saline); 100 % of control (dose: 25.0 mg/kg/injection, schedule: Q01DX001 (ip), vehicle: saline); 103 % of control (dose: 25.0 mg/kg/injection, schedule: Q01DX009 (ip), vehicle: saline). Besides, the T/C (dose: 25.0 mg/kg/injection, schedule: Q04DX003 (ip), vehicle: saline) is 98 % of control; the T/C (dose: 35.0 mg/kg/injection, schedule: Q01DX009 (ip), vehicle: acetone) was 101 % of control; the T/C (dose: 50.0 mg/kg/injection, schedule: Q01DX001 (ip), vehicle: saline) was 106 % of control.
As to `C/C(=N/N=C(N)N)c1ccc(Cl)cc1`, the T/C (dose: 15.0 mg/kg/injection, schedule: Q01DX Z (ip), vehicle: carboxymethylcellulose (CMC)) was 96 % of control; the T/C (dose: 15.0 mg/kg/injection, schedule: Q01DX Z (oral), vehicle: carboxymethylcellulose (CMC)) was 108 % of control; the T/C (dose: 30.0 mg/kg/injection, schedule: Q01DX Z (ip), vehicle: carboxymethylcellulose (CMC)) was 95 % of control; the T/C (dose: 30.0 mg/kg/injection, schedule: Q01DX Z (oral), vehicle: carboxymethylcellulose (CMC)) is 104 % of control; the T/C (dose: 60.0 mg/kg/injection, schedule: Q01DX Z (oral), vehicle: carboxymethylcellulose (CMC)) is 98 % of control.
Regarding `COc1ccc2c(c1)CCC1C2CCC2(C)C1CCC2(C)N(C)C` (stereo not drawn), the T/C (dose: 50.0 mg/kg/injection, schedule: Q01DX001 (sc), vehicle: steriod suspending solution) is 104 % of control.
In the case of `COc1cc(C=Nc2cccc(F)c2)ccc1N(CCCl)CCCl`, the T/C (dose: 2.5 mg/kg/injection, schedule: Q01DX009 (ip), vehicle: carboxymethylcellulose (CMC)) is 96 % of control; the T/C (dose: 5.0 mg/kg/injection, schedule: Q01DX009 (ip), vehicle: carboxymethylcellulose (CMC)) was 104 % of control; the T/C (dose: 10.0 mg/kg/injection, schedule: Q01DX009 (ip), vehicle: acetone) was 118 % of control; the T/C (dose: 10.0 mg/kg/injection, schedule: Q01DX009 (ip), vehicle: carboxymethylcellulose (CMC)) was 108 % of control; the T/C (dose: 45.0 mg/kg/injection, schedule: Q01DX001 (ip), vehicle: saline) is 110 % of control; the T/C (dose: 50.0 mg/kg/injection, schedule: Q01DX001 (ip), vehicle: carboxymethylcellulose (CMC)) is 101 % of control. Also, the T/C was 115 % of control (dose: 67.0 mg/kg/injection, schedule: Q01DX001 (ip), vehicle: saline); 98 % of control (dose: 100.0 mg/kg/injection, schedule: Q01DX001 (ip), vehicle: carboxymethylcellulose (CMC)); 103 % of control (dose: 200.0 mg/kg/injection, schedule: Q01DX001 (ip), vehicle: carboxymethylcellulose (CMC)); 152 % of control (dose: 200.0 mg/kg/injection, schedule: Q01DX001 (ip), vehicle: saline).
For `COc1cc(-c2cc(=O)c3c(O)cc(O)c(C4OC(CO)C(O)C(O)C4O)c3o2)ccc1O` (stereo not drawn), the T/C runs as follows: under setting [3], 108 % of control; under setting [4], 108 % of control; under setting [5], 103 % of control.
On to `Cc1cc([N+](=O)[O-])c(C)cc1Cl`, for which the T/C by setting is: (dose: 100.0 mg/kg/injection, schedule: Q01DX009 (ip), vehicle: saline sonified) 98 % of control; under setting [9], 98 % of control; (dose: 200.0 mg/kg/injection, schedule: Q01DX009 (ip), vehicle: saline sonified) 100 % of control; under setting [10], 98 % of control; (dose: 400.0 mg/kg/injection, schedule: Q01DX009 (ip), vehicle: saline sonified) 100 % of control; under setting [11], 98 % of control.
`CCOc1ccccc1NC(=O)CC(C)=O`: the T/C under setting [6] was 89 % of control, the T/C under setting [7] was 88 % of control and the T/C under setting [8] is 93 % of control.
For `O=C(COc1ccc(Cl)cc1Cl)OCCOc1ccc(Cl)cc1`, the T/C reads like this: (dose: 100.0 mg/kg/injection, schedule: Q04DX002 (ip), vehicle: Klucel (hydroxypropylcellulose) (HPC)) 97 % of control; (dose: 200.0 mg/kg/injection, schedule: Q04DX002 (ip), vehicle: Klucel (hydroxypropylcellulose) (HPC)) 97 % of control; (dose: 400.0 mg/kg/injection, schedule: Q04DX002 (ip), vehicle: Klucel (hydroxypropylcellulose) (HPC)) 118 % of control.
For `Nc1cc(=O)[nH]c(S(=O)O)n1`, the T/C (dose: 50.0 mg/kg/injection, schedule: Q01DX009 (ip), vehicle: Klucel (hydroxypropylcellulose) (HPC)) is 100 % of control; the T/C under setting [6] is 98 % of control; the T/C under setting [7] was 98 % of control.
